Results as given in patent publication US8993586B2, “N1/N2-lactam acetyl-CoA carboxylase inhibitors” (Pfizer Inc., priority 2010, dated 2015).

Columns and labels:
[1] = target: recombinant human ACC1 (rhACC1) (Homo sapiens (Human), UniProt Q13085); assay: recombinant hACC1 Transcreener ADP detection FP assay; assay type: biochemical; conditions: 50 μM ATP, 120 min at 25° C.
Protocol: (§1) For example direct inhibition of ACC activity, for the compound of Formula (I) was determined using preparations of recombinant human ACC1 (rhACC1) and recombinant human ACC2 (rhACC2).
[1] Preparation of rhACC1. Two liters of SF9 cells, infected with recombinant baculovirus containing full length human ACC1 cDNA, were suspended in ice-cold lysis buffer (25 mM Tris, pH 7.5; 150 mM NaCl; 10% glycerol; 5 mM imidazole (EMD Bioscience; Gibbstown, N.J.); 2 mM TCEP (BioVectra; Charlottetown, Canada); Benzonase nuclease (10000 U/100 g cell paste; Novagen; Madison, Wis.); EDTA-free protease inhibitor cocktail (1 tab/50 mL; Roche Diagnostics; Mannheim, Germany). Cells were lysed by 3 cycles of freeze-thaw and centrifuged at 40,000×g for 40 minutes (4° C.). Supernatant was directly loaded onto a HisTrap FF crude column (GE Healthcare; Piscataway, N.J.) and eluted with an imidazole gradient up to 0.5 M over 20 column volumes (CV). ACC1-containing fractions were pooled and diluted 1:5 with 25 mM Tris, pH 7.5, 2 mM TCEP, 10% glycerol and direct loaded onto a CaptoQ (GE Healthcare) column and eluted with an NaCl gradient up to 1 M over 20 CV's. Phosphate groups were removed from purified ACC1 by incubation with lambda phosphatase (100 U/10 μM target protein; New England Biolabs; Beverly, Mass.) for 14 hours at 4° C.; okadaic acid was added (1 μM final concentration; Roche Diagnostics) to inhibit the phosphatase. Purified ACC1 was exchanged into 25 mM Tris, pH 7.5, 2 mM TCEP, 10% glycerol, 0.5 M NaCl by 6 hour dialysis at 4° C. Aliquots were prepared and frozen at −80° C.
[2] Measurement of rhACC1 inhibition. hACC1 was assayed in a Costar #3676 (Costar, Cambridge, Mass.) 384-well plate using the Transcreener ADP detection FP assay kit (Bellbrook Labs, Madison, Wis.) using the manufacturer's recommended conditions for a 50 μM ATP reaction. The final conditions for the assay were 50 mM HEPES, pH 7.2, 10 mM MgCl2, 7.5 mM tripotassium citrate, 2 mM DTT, 0.1 mg/mL BSA, 30 μM acetyl-CoA, 50 μM ATP, and 10 mM KHCO3 Typically, a 10 μl reaction was run for 120 min at 25° C., and 10 μl of Transcreener stop and detect buffer was added and the combination incubated at room temp for an additional 1 hour. The data was acquired on a Envision Fluorescence reader (PerkinElmer) using a 620 excitation Cy5 FP general dual mirror, 620 excitation Cy5 FP filter, 688 emission (S) and a 688 (P) emission filter.

[2] = target: recombinant human ACC2 (rhACC2) (Homo sapiens (Human), UniProt O00763); assay: recombinant hACC2 Transcreener ADP detection FP assay; assay type: biochemical; conditions: 50 uM ATP, 50 min at 25° C.
Chain of recombinant human ACC2 (rhACC2) (O00763 whole entry V2141I): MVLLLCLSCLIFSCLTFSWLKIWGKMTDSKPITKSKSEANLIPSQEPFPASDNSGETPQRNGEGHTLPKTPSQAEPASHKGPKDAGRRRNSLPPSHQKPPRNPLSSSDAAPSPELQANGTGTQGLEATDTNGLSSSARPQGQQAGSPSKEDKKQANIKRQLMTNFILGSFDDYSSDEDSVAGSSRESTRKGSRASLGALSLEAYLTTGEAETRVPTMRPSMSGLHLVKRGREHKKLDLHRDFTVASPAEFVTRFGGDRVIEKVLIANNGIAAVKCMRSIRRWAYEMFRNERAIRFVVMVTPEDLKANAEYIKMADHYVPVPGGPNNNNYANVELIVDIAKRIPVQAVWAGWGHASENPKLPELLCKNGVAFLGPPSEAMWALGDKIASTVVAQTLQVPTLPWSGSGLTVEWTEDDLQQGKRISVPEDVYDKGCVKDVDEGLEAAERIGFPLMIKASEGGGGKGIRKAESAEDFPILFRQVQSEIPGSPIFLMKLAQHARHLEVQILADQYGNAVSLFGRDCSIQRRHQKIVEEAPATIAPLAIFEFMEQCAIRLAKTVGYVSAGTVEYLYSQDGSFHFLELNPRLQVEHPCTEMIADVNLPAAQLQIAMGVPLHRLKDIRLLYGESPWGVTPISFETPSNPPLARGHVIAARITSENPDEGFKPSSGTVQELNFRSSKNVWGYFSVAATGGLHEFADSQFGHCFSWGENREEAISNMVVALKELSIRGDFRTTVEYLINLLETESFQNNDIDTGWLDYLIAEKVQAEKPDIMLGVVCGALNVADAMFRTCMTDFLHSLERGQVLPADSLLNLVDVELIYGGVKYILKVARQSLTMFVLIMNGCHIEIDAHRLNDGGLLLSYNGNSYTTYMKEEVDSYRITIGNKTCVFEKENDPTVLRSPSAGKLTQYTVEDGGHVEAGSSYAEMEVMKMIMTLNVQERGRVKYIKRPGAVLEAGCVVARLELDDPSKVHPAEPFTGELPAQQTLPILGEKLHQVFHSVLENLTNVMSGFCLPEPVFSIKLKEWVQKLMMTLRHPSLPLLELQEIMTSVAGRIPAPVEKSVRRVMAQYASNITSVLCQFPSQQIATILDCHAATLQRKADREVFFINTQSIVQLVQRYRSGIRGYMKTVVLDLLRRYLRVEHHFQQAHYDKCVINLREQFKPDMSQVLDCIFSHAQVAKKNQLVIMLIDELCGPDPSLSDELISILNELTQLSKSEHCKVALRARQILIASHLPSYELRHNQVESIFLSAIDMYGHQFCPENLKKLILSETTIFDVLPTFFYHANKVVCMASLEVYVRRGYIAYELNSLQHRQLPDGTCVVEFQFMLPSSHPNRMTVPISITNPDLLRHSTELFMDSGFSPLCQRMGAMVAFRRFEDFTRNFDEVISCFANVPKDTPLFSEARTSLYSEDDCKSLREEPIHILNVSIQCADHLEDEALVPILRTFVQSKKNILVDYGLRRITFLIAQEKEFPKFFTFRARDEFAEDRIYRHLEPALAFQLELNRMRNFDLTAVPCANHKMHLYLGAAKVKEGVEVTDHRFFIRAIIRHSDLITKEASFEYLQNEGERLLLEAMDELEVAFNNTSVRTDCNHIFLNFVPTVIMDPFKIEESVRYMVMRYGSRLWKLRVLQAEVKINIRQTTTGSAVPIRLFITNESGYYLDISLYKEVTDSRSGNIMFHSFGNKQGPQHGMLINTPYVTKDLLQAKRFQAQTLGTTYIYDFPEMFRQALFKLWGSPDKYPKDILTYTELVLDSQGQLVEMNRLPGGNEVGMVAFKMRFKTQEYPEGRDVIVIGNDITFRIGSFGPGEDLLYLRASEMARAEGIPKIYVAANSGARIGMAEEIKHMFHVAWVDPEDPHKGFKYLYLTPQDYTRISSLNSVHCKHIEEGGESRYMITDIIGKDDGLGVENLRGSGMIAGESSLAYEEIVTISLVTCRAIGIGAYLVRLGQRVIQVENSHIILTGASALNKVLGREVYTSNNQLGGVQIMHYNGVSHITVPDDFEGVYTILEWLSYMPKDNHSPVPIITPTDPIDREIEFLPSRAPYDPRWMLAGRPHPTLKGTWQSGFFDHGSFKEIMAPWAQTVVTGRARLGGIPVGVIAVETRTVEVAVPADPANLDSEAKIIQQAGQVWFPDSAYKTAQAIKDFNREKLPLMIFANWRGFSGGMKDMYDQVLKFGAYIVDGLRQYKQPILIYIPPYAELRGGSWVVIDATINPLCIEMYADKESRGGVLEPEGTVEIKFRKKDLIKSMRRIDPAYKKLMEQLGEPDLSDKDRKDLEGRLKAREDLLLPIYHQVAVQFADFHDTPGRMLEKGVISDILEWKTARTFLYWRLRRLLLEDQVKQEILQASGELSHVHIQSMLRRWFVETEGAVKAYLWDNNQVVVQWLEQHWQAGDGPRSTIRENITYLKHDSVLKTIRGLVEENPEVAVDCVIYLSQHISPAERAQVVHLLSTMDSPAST
Protocol: as §1
[3] Preparation of rhACC2. Human ACC2 inhibition was measured using purified recombinant human ACC2 (hrACC2). Briefly, a full length Cytomax clone of ACC2 was purchased from Cambridge Bioscience Limited and was sequenced and subcloned into PCDNA5 FRT TO-TOPO (Invitrogen, Carlsbad, Calif.). The ACC2 was expressed in CHO cells by tetracycline induction and harvested in 5 liters of DMEM/F12 with glutamine, biotin, hygromycin and blasticidin with 1 μg/mL tetracycline (Invitrogen, Carlsbad, Calif.). The conditioned medium containing ACC2 was then applied to a Softlink Soft Release Avidin column (Promega, Madison, Wis.) and eluted with 5 mM biotin. […] The purified ACC2 was dialyzed in 50 mM Tris, 200 mM NaCl, 4 mM DTT, 2 mM EDTA, and 5% glycerol. […] For measurement of ACC2 activity and assessment of ACC2 inhibition, test compounds were dissolved in DMSO and added to the rhACC2 enzyme as a 5× stock with a final DMSO concentration of 1%.
[4] Measurement of human ACC2 inhibition. hACC2 was assayed in a Costar #3676 (Costar, Cambridge, Mass.) 384-well plate using the Transcreener ADP detection FP assay kit (Bellbrook Labs, Madison, Wis.) using the manufacturer's recommended conditions for a 50 uM ATP reaction. The final conditions for the assay were 50 mM HEPES, pH 7.2, 5 mM MgCl2, 5 mM tripotassium citrate, 2 mM DTT, 0.1 mg/mL BSA, 30 μM acetyl-CoA, 50 μM ATP, and 8 mM KHCO3 Typically, a 10 μl reaction was run for 50 min at 25° C., and 10 μl of Transcreener stop and detect buffer was added and the combination incubated at room temp for an additional 1 hour. The data was acquired on an Envision Fluorescence reader (PerkinElmer) using a 620 excitation Cy5 FP general dual mirror, 620 excitation Cy5 FP filter, 688 emission (S) and a 688 (P) emission filter.

SMILES | IC50 [1] [nM] | IC50 [2] [nM]
COc1cccc2cc(C(=O)N3CCC4(CC3)Cc3cn(C(C)(C)C)nc3C(=O)N4)ccc12 [Example 50] | 30 | 7.5
COc1cc(C(=O)N2CCC3(CC2)Cc2cn(C(C)(C)C)nc2C(=O)N3)nc2c(OC)cccc12 [Example 51] | 15 | 4.4
COc1ccc(C)c2[nH]c(C(=O)N3CCC4(CC3)Cc3cn(C(C)(C)C)nc3C(=O)N4)cc12 [Example 56] | 7.4 | 1.9
Cc1cc(C(=O)N2CCC3(CC2)Cc2cn(C(C)(C)C)nc2C(=O)N3)cc2c(Cl)n[nH]c12 [Example 62] | 8.4 | 2.1
Cn1[nH]c2ccc(C(=O)N3CCC4(CC3)Cc3cn(C(C)(C)C)nc3C(=O)N4)cc2c1=O [Example 67] | 1340 | 311
COc1cccc2cc(C(=O)N3CCC4(CC3)Cc3cn(C(C)(C)C)nc3C(=O)N4)cnc12 [Example 68] | 221 | 68
CNc1ccc2cc(C(=O)N3CCC4(CC3)Cc3cn(C(C)(C)C)nc3C(=O)N4)ccc2n1 [Example 69] | 185 | 28
COc1cccc2ccc(C(=O)N3CCC4(CC3)Cc3cn(C(C)(C)C)nc3C(=O)N4)cc12 [Example 70] | 5.8 | 2.4
CNc1cc2cc(C(=O)N3CCC4(CC3)Cc3cn(C(C)(C)C)nc3C(=O)N4)ccc2cn1 [Example 73] | 48 | 5.5
COc1cccc2ncc(C(=O)N3CCC4(CC3)Cc3cn(C(C)(C)C)nc3C(=O)N4)cc12 [Example 74] | 18 | 3.2
CC(C)(C)n1cc2c(n1)C(=O)NC1(CCN(C(=O)c3cc(C(F)(F)F)c4[nH]ncc4c3)CC1)C2 [Example 78] | 155 | 34
CC(C)(C)n1cc2c(n1)C(=O)NC1(CCN(C(=O)c3ccc4c(C(F)(F)F)n[nH]c4c3)CC1)C2 [Example 83] | 163 | 19
Cn1[nH]c2cc(C(=O)N3CCC4(CC3)Cc3cn(C(C)(C)C)nc3C(=O)N4)ccc2c1=O [Example 84] | 194 | 33
COc1cc(C(=O)N2CCC3(CC2)Cc2cn(C(C)(C)C)nc2C(=O)N3)cc2c(C)n[nH]c12 [Example 87] | 17 | 2.1
COc1cc2ccc(C(=O)N3CCC4(CC3)Cc3cn(C(C)(C)C)nc3C(=O)N4)cc2cn1 [Example 90] | 209 | 31
CNc1nccc2cc(C(=O)N3CCC4(CC3)Cc3cn(C(C)(C)C)nc3C(=O)N4)ccc12 [Example 91] | 240 | 51
COc1nccc2cc(C(=O)N3CCC4(CC3)Cc3cn(C(C)(C)C)nc3C(=O)N4)ccc12 [Example 92] | 244 | 55
CC(C)(C)n1cc2c(n1)C(=O)NC1(CCN(C(=O)c3cnc4[nH]cc(Cl)c4c3)CC1)C2 [Example 96] | 62 | 7.1

More lines, now with the values ahead:

IC50 [1] [nM] | IC50 [2] [nM] | SMILES
88 | 17 | CC(C)(C)n1cc2c(n1)C(=O)NC1(CCN(C(=O)c3ccc4cn[nH]c4c3)CC1)C2 [Example 52]
47 | 13 | CC(C)(C)n1cc2c(n1)C(=O)NC1(CCN(C(=O)c3ccc4c(C#N)n[nH]c4c3)CC1)C2 [Example 53]
21 | 5.1 | CC(C)(C)n1cc2c(n1)C(=O)NC1(CCN(C(=O)c3ccc4[nH]nc(C(N)=O)c4c3)CC1)C2 [Example 54]
149 | 12 | CC(C)(C)n1cc2c(n1)C(=O)NC1(CCN(C(=O)c3ccc4nc(N)ccc4c3)CC1)C2 [Example 58]
123 | 14 | CC(C)(C)n1cc2c(n1)C(=O)NC1(CCN(C(=O)c3ccc4cnc(N)cc4c3)CC1)C2 [Example 59]
43 | 14 | CC(C)(C)n1cc2c(n1)C(=O)NC1(CCN(C(=O)c3ccc4[nH]nc(C#N)c4c3)CC1)C2 [Example 60]
94 | 13 | CC(C)(C)n1cc2c(n1)C(=O)NC1(CCN(C(=O)c3ccc4[nH]nc(N)c4c3)CC1)C2 [Example 61]
160 | 28 | CC(C)(C)n1cc2c(n1)C(=O)NC1(CCN(C(=O)c3ccc4ncccc4c3)CC1)C2 [Example 63]
256 | 56 | CC(C)(C)n1cc2c(n1)C(=O)NC1(CCN(C(=O)c3ccc4c(N)n[nH]c4c3)CC1)C2 [Example 65]
17 | 2.4 | COc1cc(C(=O)N2CCC3(CC2)Cc2cn(C(C)(C)C)nc2C(=O)N3)cc2[nH]ncc12 [Example 66]
28 | 5.9 | CC(C)(C)n1cc2c(n1)C(=O)NC1(CCN(C(=O)c3ccc4ccc(N)nc4c3)CC1)C2 [Example 72]
79 | 11 | CNc1nc2cc(C(=O)N3CCC4(CC3)Cc3cn(C(C)(C)C)nc3C(=O)N4)ccc2[nH]1 [Example 75]
80 | 8.4 | CC(C)(C)n1cc2c(n1)C(=O)NC1(CCN(C(=O)c3ccc4[nH]c(N)nc4c3)CC1)C2 [Example 77]
216 | 18 | COc1n[nH]c2cc(C(=O)N3CCC4(CC3)Cc3cn(C(C)(C)C)nc3C(=O)N4)ccc12 [Example 79]
46 | 5.3 | COc1n[nH]c2ccc(C(=O)N3CCC4(CC3)Cc3cn(C(C)(C)C)nc3C(=O)N4)cc12 [Example 81]
343 | 44 | CNc1n[nH]c2cc(C(=O)N3CCC4(CC3)Cc3cn(C(C)(C)C)nc3C(=O)N4)ccc12 [Example 89]
65 | 8.6 | CNc1n[nH]c2ccc(C(=O)N3CCC4(CC3)Cc3cn(C(C)(C)C)nc3C(=O)N4)cc12 [Example 93]
130 | 23 | CC(C)(C)n1cc2c(n1)C(=O)NC1(CCN(C(=O)c3ccc4cc(N)ncc4c3)CC1)C2 [Example 94]
105 | 9.2 | CNc1cc2ccc(C(=O)N3CCC4(CC3)Cc3cn(C(C)(C)C)nc3C(=O)N4)cc2cn1 [Example 95]
23 | 5.6 | COc1cc(C(=O)N2CCC3(CC2)Cc2cn(C(C)(C)C)nc2C(=O)N3)cc2cn[nH]c12 [Example 99, 2′-tert-butyl-1-(7-methoxy-1H-indazole-5-carbonyl)-4′,6′-dihydrospiro[piperidine-4,5′-pyrazolo[3,4-c]pyridin]-7′(2′H)-one]
62 | 21 | CC(C)(C)n1cc2c(n1)C(=O)NC1(CCN(C(=O)c3ccc4ccnc(N)c4c3)CC1)C2 [Example 100, 1-(1-aminoisoquinoline-7-carbonyl)-2′-tert-butyl-4′,6′-dihydrospiro[piperidine-4,5′-pyrazolo[3,4-c]pyridin]-7′(2′H)-one]
